Results published in patent US20240131032A1, “AN ACTIVITY-GUIDED MAP OF ELECTROPHILE-CYSTEINE INTERACTIONS IN PRIMARY HUMAN IMMUNE CELLS” (The Scripps Research Institute, priority 2019, published 2024).

What was measured:
BIRC2 and BIRC3 mRNA = assay: mRNA content for BIRC2 and BIRC3 in T cells (qPCR); type: cell-based, human; details: EV-3 10 μM, 24 h
Procedure: All treatments were done with T cells for 24 hours.
Total RNA from compound or DMSO treated T cells (1.5×10^7 cells/group) was isolated using RNeasy Mini Kit (Qiagen) according to manufacturer's protocol. RNA concentration was determined using NanoDrop and adjusted to 1 μg RNA in 15 μL RNAse free water for the reverse transcription reaction. cDNA amplification was done using iScript Reverse Transcription Supermix kit (BioRad) according to manufacturer's instructions. The following PCR settings were used for the reverse transcription reaction: 5 min at 25° C. (priming), 20 min at 46° C. (Reverse transcription), 1 min at 95° C. (RT inactivation), hold at 4° C. qPCR analysis was performed on ABI Real Time PCR System (Applied Biosystems) with the SYBR green Mastermix (Applied Biosystems). Relative gene expression was normalized to actin.

primary human T cells = assay: Multidimensional screen for inhibition of T cell activation (IL-2, IFN-γ secretion, CD25, CD69 expression); type: cell-based; details: electrophilic compounds 10 μM each (DMF 50 μM), 24 h, anti-CD3/anti-CD28 activation
Procedure: FIG. 4A-4D is an overview of a multidimensional screen to identify elaborated electrophilic compounds that suppress T cell activation. FIG. 4A is a workflow for T-cell activation screen. Primary human T cells were treated with a focused library of elaborated electrophilic compounds (10 μM, structures of compounds in FIG. 12), a positive control immunosuppressive compound (DMF, 50 μM), or DMSO under TCR-stimulating conditions in 96-well plates pre-coated with 5 μg/mL αCD3 and 2 μg/mL αCD28 for 24 h. T cell activation was measured using a combination of markers, including IL2 and IFNγ secretion, as well as surface expression of CD25 and CD69. T cell viability was measured by flow cytometry using a Fixable Near-IR LIVE/DEAD™ Cell Stain. Compounds were considered as active hits if they reduced IL2 cytokine production by >65% with <15% reduction in T cell viability in the cytotoxicity assay compared to DMSO control. […]
The levels of secreted IL2, IFNγ and TNFα after incubating T cells in the presence of DMSO or electrophilic compounds under TCR-stimulating conditions were measured using DuoSet ELISA cytokine kits (R&D Systems) in clear microplates (R&D Systems) according to manufacturer's instructions and read using a CLARIOstar (BMG Labtech) plate reader (450 nm). All cytokine concentrations were calculated according to the standard curve generated for each experiment.

| SMILES | mRNA content for BIRC2 or BIRC3 (BIRC2 and BIRC3 mRNA) | suppress T cell activation (primary human T cells) [%] |
| --- | --- | --- |
| O=C(CCl)N1CCN(S(=O)(=O)c2ccc(-c3ccncc3)cc2)CC1 [EV-3] | minimal changes | – |
| COC(=O)/C=C/C(=O)OC [DMF, reference compound] | – | > 65 |
